Laboratory results from PMC7069976, “Improved secretion of glycoproteins using an N-glycan-restricted passport sequence tag recognized by cargo receptor” (Nature Communications, 2020).

Experiments:
Format in all cases: cell-based
HCT116 cells = assay: RUSH imaging of ER-to-Golgi transport; details: for colocalized fraction with GM130 (Manders' M1), average: mScarlet-I fusion
Experimental: For live-cell imaging using RUSH system, li-Str_ST-SBP-mCherry (Plasmid #65269) was purchased from Addgene. We replaced mCherry with mScarlet-I-EPO or mScarlet-I-EPO-motif (SbfI/XbaI). HCT116 cells were plated on 35-mm glass-based dishes, which were coated with poly-L-lysine, and grown overnight. RUSH plasmids to express mScarlet-I-EPO and mScarlet-I-EPO-motif were individually transfected into the cells using Expifectamine^TM 293 reagent. After 24 h, the medium was changed into DMEM including 40 μM (+)-biotin for starting the translocation form ER. […] After blocking with Blocking One solution (Nacalai Tesque), the cells were incubated with polyclonal rabbit anti-GM130 (Proteintech, 11308-1-AP, dilution 1 :1000) and then with Alexa Fluor 488-conjugated anti-rabbit IgG antibody [Jackson ImmunoResearch (West Grove, PA), 711-545-152, dilution 1:1000] in 20 mM Tris-HCl (pH 7.6) containing 150 mM NaCl and 0.05% Tween-20. Cell images were recorded using a fluorescence microscope BZ-X700 and BZ-H3XF/Sectioning Module (Keyence Co., Osaka, Japan) and analyzed by Fiji[31]. For quantification of co-localization of EPO proteins and GM130, the images were thresholded by the Otsu method and analyzed by calculating Manders’ coefficient (M1) with Coloc2 plugin[32]. Because of abnormal distribution of the imaging data based on Shapiro–Wilk normality test, nonparametric statistics were used for the analysis. All statistical analysis was performed in the R statistical environment version 3.5.3[33].

HCT116 cells (WT) = assay: EPO secretion level (ELISA) from wild-type HCT116 cells; details: for EPO secretion level (Figure 4F): HCT116, alanine substitutions in motif
Text: (§1) For expression of the FVIII and FV full-length and deletion mutant proteins in mammalian cells, the codon-optimized FVIII and FV genes were inserted into the p3XFLAG-CMV-14 Expression Vector and p3XFLAG-CMV-9 Expression Vector, respectively (Sigma-Aldrich, St. Louis, MO). For the expression of the wild-type and mutated AAT, EPO, and sFγRIIIa in mammalian cells, the corresponding genes (purchased from FASMAC Co., Ltd., Atsuki, Japan) were inserted into the p3XFLAG-CMV-9 Expression Vector (Sigma-Aldrich).
HCT116 and its mutated cells as well as HEK293T were maintained in Dulbecco’s modified Eagle’s medium (DMEM) supplemented with 10% fetal bovine serum in 5% CO2 at 37 °C. For complementary DNA (cDNA) transfection, cells were grown overnight and transfected using Polyethylenimine “Max” (Polysciences Inc.) as described previously. Expi293F cells (Thermo Fisher Scientific, Waltham, MA) were maintained in Expi293 Expression Medium (Thermo Fisher Scientific) in 5% CO2 at 37 °C on an orbital shaker platform rotating at 125 r.p.m. For cDNA transfection, cells were transfected with the ExpiFectamine 293 Transfection Kit (Thermo Fisher Scientific Inc.). Protein expression was performed in serum-free medium.
(§2) The secreted levels of FVIII and FV antigens in the culture medium were determined with an sandwich enzyme-linked immunosorbent assay (ELISA) method using the VisuLize FVIII Antigen Kit (Affinity Biologicals Inc., Ancaster, ON) and the Asssay Max™ Human Factor V ELISA Kit (ASSAYPRO, MO), respectively. The secreted levels of AAT and EPO antigens in the culture medium were determined with an ELASA method using the anti-AAT antibody (Agilent, Santa Clara, CA) and anti-Flag M2 antibody (Sigma-Aldrich), respectively.

ΔMCFD2 HCT116 cells = assay: EPO secretion level (ELISA) from MCFD2 KO HCT116 cells
Text: The guide RNAs (gRNAs) flanking the target enhancer regions for ERGIC-53 and MCFD2 were designed using ToolGen’s dRGEN synthesis service (Seoul, South Korea). The target DNA sequences of the gRNAs used in the present study were as follows: for MCFD2 deletion, […], and for ERGIC-53 deletion, […]. The gRNA expression plasmids (pRGEN-U6-sgRNA) were purchased from ToolGen. To generate the KO cells of MCFD2 or ERGIC-53, individual gRNA plasmids and a plasmid-expressing Cas9-green fluorescent protein (GFP) (Addgene, catalog #44719) were transiently transfected into HCT116 cells, which are diploid cells suitable for genome editing using the CRISPR/Cas9 method, in a six-well plate using polyethylenimine “Max” (Polysciences Inc., Warrington, PA) and a Cas9:gRNA molar ratio of 1:5 as described previously. At 48 h post transfection, cells with high GFP expression were identified using fluorescence-activated cell sorting with the BD FACSAria II cell sorter (BD Biosciences, San Jose, CA). For knocking out ERGL in the wild-type and ERGIC-53-KO cells, the Guide-it CRISPR/Cas9 System (green/red) (Takara Bio Inc., Kusatsu, Japan) was used for the cloning and expression of target single gRNAs, whose target ERGL DNA sequences were […] and […]. The two constructed pGuide-it Vectors (green and red) were transiently transfected into HCT116 cells. At 48 h post transfection, cells with high ZsGreen1 and tdTomato expression were identified using fluorescence-activated cell sorting. Sorted cells were plated into individual wells of a 96-well plate and then re-plated as single cells in 6 cm dishes. The deletions in the clones were confirmed by polymerase chain reaction and sequencing analysis (Supplementary Figs. 8, 9, 10, and 11).
as §1, with “(Sigma-Aldrich). […]” for “(Sigma-Aldrich).”
as §2

EPO: recombinant Flag-tagged erythropoietin without motif (Fig. 5 prints EPO for mScarlet-I-EPO)
colocalized fraction with GM130 (Manders' M1) (HCT116 cells; 0 min, Figure No. 1): 0.028 | colocalized fraction with GM130 (Manders' M1) (HCT116 cells; 0 min, Figure No. 2): 0.024 | colocalized fraction with GM130 (Manders' M1) (HCT116 cells; 0 min, Figure No. 3): 0.051 | colocalized fraction with GM130 (Manders' M1) (HCT116 cells; 0 min, Figure No. 4): 0.098 | colocalized fraction with GM130 (Manders' M1) (HCT116 cells; 0 min, Figure No. 5): 0.14 | colocalized fraction with GM130 (Manders' M1) (HCT116 cells; 0 min, Figure No. 6): 0.098 | colocalized fraction with GM130 (Manders' M1) (HCT116 cells; 0 min, Figure No. 7): 0.128 | colocalized fraction with GM130 (Manders' M1) (HCT116 cells; 0 min, Figure No. 8): 0.018 | colocalized fraction with GM130 (Manders' M1) (HCT116 cells; 0 min, Figure No. 9): 0.026 | colocalized fraction with GM130 (Manders' M1), average (HCT116 cells; 0 min after biotin (40 μM), n = 9 cells): 0.06789 | colocalized fraction with GM130 (Manders' M1) (HCT116 cells; 30 min, Figure No. 1): 0.115 | colocalized fraction with GM130 (Manders' M1) (HCT116 cells; 30 min, Figure No. 2): 0.302 | colocalized fraction with GM130 (Manders' M1) (HCT116 cells; 30 min, Figure No. 3): 0.628 | colocalized fraction with GM130 (Manders' M1) (HCT116 cells; 30 min, Figure No. 4): 0.57 | colocalized fraction with GM130 (Manders' M1) (HCT116 cells; 30 min, Figure No. 5): 0.472 | colocalized fraction with GM130 (Manders' M1) (HCT116 cells; 30 min, Figure No. 6): 0.508 | colocalized fraction with GM130 (Manders' M1) (HCT116 cells; 30 min, Figure No. 7): 0.39 | colocalized fraction with GM130 (Manders' M1) (HCT116 cells; 30 min, Figure No. 8): 0.267 | colocalized fraction with GM130 (Manders' M1) (HCT116 cells; 30 min, Figure No. 9): 0.53 | colocalized fraction with GM130 (Manders' M1) (HCT116 cells; 30 min, Figure No. 10): 0.285 | colocalized fraction with GM130 (Manders' M1), average (HCT116 cells; 30 min after biotin (40 μM), n = 10 (EPO) or 13 (EPO-motif) cells): 0.4067 | ER-to-Golgi trafficking (HCT116 cells; 30 min after biotin addition): localized in the Golgi to varying extents depending on the C-terminal motif | localization in RUSH imaging (HCT116 cells; before addition of biotin (time 0)): typical ER localization | EPO secretion level (Figure 4E), average (HCT116 cells (WT); HCT116, N-glycan-deficient mutants, Average, EPO = 1): 1 | EPO secretion level (Figure 4E) (HCT116 cells (WT); HCT116, N-glycan-deficient mutants, replicate 1): 1.0366 | EPO secretion level (Figure 4E) (HCT116 cells (WT); HCT116, N-glycan-deficient mutants, replicate 2): 1.006 | EPO secretion level (Figure 4E) (HCT116 cells (WT); HCT116, N-glycan-deficient mutants, replicate 3): 0.9333 | EPO secretion level (Figure 4E) (HCT116 cells (WT); HCT116, N-glycan-deficient mutants, replicate 4): 1.024 | EPO secretion level (Figure 4F), average (HCT116 cells (WT); HCT116, alanine substitutions in C-terminal motif, Average, n = 3, EPO = 1): 1 | EPO secretion level (Figure 4F) (HCT116 cells (WT); replicate 1): 1.027 | EPO secretion level (Figure 4F) (HCT116 cells (WT); replicate 2): 1.0473 | EPO secretion level (Figure 4F) (HCT116 cells (WT); replicate 3): 0.9257 | EPO secretion level (Figure 4C), average (HCT116 cells (WT); HCT116, motif position series, average, n = 3 independent transfections, Flag-EPO average = 1): 1 | EPO secretion level (Figure 4C) (HCT116 cells (WT); HCT116, motif position series, replicate 1): 1.0819 | EPO secretion level (Figure 4C) (HCT116 cells (WT); HCT116, motif position series, replicate 2): 0.9754 | EPO secretion level (Figure 4C) (HCT116 cells (WT); HCT116, motif position series, replicate 3): 0.9427 | EPO secretion level (Figure 4D), average (HCT116 cells (WT); Wild type HCT116, KO series, average, n = 3, EPO in wild type = 1): 1 | EPO secretion level (Figure 4D) (HCT116 cells (WT); Wild type HCT116, KO series, replicate 1): 0.9075 | EPO secretion level (Figure 4D) (HCT116 cells (WT); Wild type HCT116, KO series, replicate 2): 1.011 | EPO secretion level (Figure 4D) (HCT116 cells (WT); Wild type HCT116, KO series, replicate 3): 1.081 | EPO secretion level (Figure 4D), average (ΔMCFD2 HCT116 cells; average, n = 3, EPO in wild type = 1): 0.9208 | EPO secretion level (Figure 4D) (ΔMCFD2 HCT116 cells; replicate 1): 0.5997 | EPO secretion level (Figure 4D) (ΔMCFD2 HCT116 cells; replicate 2): 1.0013 | EPO secretion level (Figure 4D) (ΔMCFD2 HCT116 cells; replicate 3): 1.162
